# Molecular target: T1, ACS5-G (Pyrococcus furiosus, UniProt E7FHP1+Q8TZY7)
# T1 construct: gene PF1838
# Conditions: reverse reaction; 20 mM acid, 1 mM ATP or GTP, 0.5 mM CoA, 2 mM MgCl2, pH 7.0, 80°C
# T1 sequence (Q8TZY7 1-473): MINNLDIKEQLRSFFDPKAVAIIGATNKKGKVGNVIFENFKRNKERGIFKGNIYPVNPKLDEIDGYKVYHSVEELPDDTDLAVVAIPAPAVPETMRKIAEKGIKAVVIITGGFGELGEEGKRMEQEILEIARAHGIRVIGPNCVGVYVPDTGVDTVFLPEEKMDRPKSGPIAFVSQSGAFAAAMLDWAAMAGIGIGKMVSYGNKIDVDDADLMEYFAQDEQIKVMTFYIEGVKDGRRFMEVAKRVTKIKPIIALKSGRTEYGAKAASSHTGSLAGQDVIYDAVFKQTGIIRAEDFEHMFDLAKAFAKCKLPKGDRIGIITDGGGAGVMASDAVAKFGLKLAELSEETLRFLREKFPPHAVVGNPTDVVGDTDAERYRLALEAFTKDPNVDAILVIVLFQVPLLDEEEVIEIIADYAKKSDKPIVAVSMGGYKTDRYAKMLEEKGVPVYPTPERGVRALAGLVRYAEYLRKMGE
# T1 sequence (E7FHP1 whole entry): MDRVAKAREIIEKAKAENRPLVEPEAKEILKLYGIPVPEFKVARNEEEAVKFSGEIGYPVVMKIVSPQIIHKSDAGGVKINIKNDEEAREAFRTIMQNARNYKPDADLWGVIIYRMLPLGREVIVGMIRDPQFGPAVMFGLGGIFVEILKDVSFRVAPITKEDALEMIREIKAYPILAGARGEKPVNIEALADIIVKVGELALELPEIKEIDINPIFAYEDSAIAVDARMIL
smiles,measurement,value
C[C@H](O)C(=O)O [lactate],relative activity,ACS5 is the only enzyme that has significant activity with lactate
